Values of other authors in patent US8961928B2, “Ligand and metal complex having the same” (National Chiao Tung University, priority 2012, dated 2015).
Like-named read-outs stand apart in the source and are kept apart here.

Row | Relaxivity r1 (pH 7.6 ± 0.1, data from Inorg. Chem., 2001, 40, 2170-2176) | Relaxivity r1 (pH 7.5 ± 0.1, data from Inorg. Chem., 2005, 44, 382) | SMILES
1 | 3.89 ± 0.03 mM⁻¹ s⁻¹ | – | O=C([O-])CN(CCN(CC(=O)[O-])CC(=O)[O-])CCN(CC(=O)[O-])CC(=O)[O-].[Gd+3] [[Gd(DTPA)]^2−]
2 | – | 3.85 ± 0.03 mM⁻¹ s⁻¹ | O=C([O-])CN(CCCN(CC(=O)[O-])CC(=O)[O-])CCN(CC(=O)[O-])CC(=O)[O-].[Gd+3] [[Gd(TTDA)]^2−]
